Source: article PMC3480714 (Nature chemical biology, 2012)

Biological target: T1, CobL (Rhodobacter capsulatus, UniProt D5AV04)
T1 sequence (D5AV04 214-396): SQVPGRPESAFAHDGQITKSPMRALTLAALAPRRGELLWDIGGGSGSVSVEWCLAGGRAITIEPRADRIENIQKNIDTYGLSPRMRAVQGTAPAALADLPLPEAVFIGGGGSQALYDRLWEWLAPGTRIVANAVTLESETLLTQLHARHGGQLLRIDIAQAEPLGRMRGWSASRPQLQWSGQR
Assay: X-ray crystal structure at […] Å
Type: binding

Compound: Nc1ncnc2c1ncn2[C@@H]1O[C@H](CSCC[C@H](N)C(=O)O)[C@@H](O)[C@H]1O [SAH]
- X-ray crystal structure at 2.7 Å: The SAM binding site of the CobL^C subunit showing SAH bound at the C-terminal end of the Rossmann-like
